Experiments:
Assay in all cases: relative viability (nuclei count vs DMSO), 5 days (fraction); higher = more cells survive
[1] = tested on: HCC-44
In short: (§1)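 Lung cancer cell lines in 1536-well plates got either a single drug or a fixed anchor-drug dose together with five library-drug doses (not always all listed) in √10 steps, by pin tool, on the day after seeding. Nuclei were counted after 5 days, and relative viability is the treated-to-vehicle ratio of nuclei counts. Values are medians of duplicate plates.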

[2] = tested on: NCI-H1437
In short: as §1

[3] = tested on: HCC-366
In short: as §1

[4] = tested on: NCI-H3122
In short: as §1

[5] = tested on: NCI-H2085
In short: as §1

[6] = tested on: NCI-H1648
In short: as §1

[7] = tested on: NCI-H1623
In short: as §1

[8] = tested on: LOU-NH91
In short: as §1

O=c1cc(N2CCOCC2)oc2c(-c3cccc4c3sc3ccccc34)cccc12 + COc1cccc2cc(-c3nc([C@H]4CC[C@H](C(=O)O)CC4)n4ncnc(N)c34)[nH]c12 [OSI-027] (partner 0.5 µM)
relative viability ([1]; first compound 0.01 µM): 0.524 | relative viability ([1]; first compound 0.03162 µM): 0.504 | relative viability ([1]; first compound 0.1 µM): 0.588 | relative viability ([1]; first compound 0.3162 µM): 0.694 | relative viability ([1]; first compound 1 µM): 0.463 | relative viability ([2]; first compound 0.01 µM): 0.907 | relative viability ([2]; first compound 0.03162 µM): 0.848 | relative viability ([2]; first compound 0.1 µM): 0.913 | relative viability ([2]; first compound 0.3162 µM): 0.944 | relative viability ([2]; first compound 1 µM): 0.935 | relative viability ([3]; first compound 0.01 µM): 1 | relative viability ([3]; first compound 0.03162 µM): 1.38 | relative viability ([3]; first compound 0.1 µM): 1.12 | relative viability ([3]; first compound 0.3162 µM): 0.928 | relative viability ([3]; first compound 1 µM): 0.955 | relative viability ([4]; first compound 0.01 µM): 1.02 | relative viability ([4]; first compound 0.03162 µM): 0.911 | relative viability ([4]; first compound 0.1 µM): 0.907 | relative viability ([4]; first compound 0.3162 µM): 0.987 | relative viability ([4]; first compound 1 µM): 0.934 | relative viability ([5]; first compound 0.01 µM): 0.946 | relative viability ([5]; first compound 0.03162 µM): 0.768 | relative viability ([5]; first compound 0.1 µM): 0.756 | relative viability ([5]; first compound 0.3162 µM): 0.827 | relative viability ([5]; first compound 1 µM): 0.8 | relative viability ([6]; first compound 0.01 µM): 0.244 | relative viability ([6]; first compound 0.03162 µM): 0.253 | relative viability ([6]; first compound 0.1 µM): 0.239 | relative viability ([6]; first compound 0.3162 µM): 0.235 | relative viability ([6]; first compound 1 µM): 0.235 | relative viability ([7]; first compound 0.01 µM): 0.45 | relative viability ([7]; first compound 0.03162 µM): 0.477 | relative viability ([7]; first compound 0.1 µM): 0.362 | relative viability ([7]; first compound 0.3162 µM): 0.407 | relative viability ([7]; first compound 1 µM): 0.429 | relative viability ([8]; first compound 0.01 µM): 0.68 | relative viability ([8]; first compound 0.03162 µM): 0.754 | relative viability ([8]; first compound 0.1 µM): 0.728 | relative viability ([8]; first compound 0.3162 µM): 0.779 | relative viability ([8]; first compound 1 µM): 0.702

CCN(CC)CCCCNc1ncc2cc(-c3cc(OC)cc(OC)c3)c(NC(=O)NC(C)(C)C)nc2n1 + COc1cccc2cc(-c3nc([C@H]4CC[C@H](C(=O)O)CC4)n4ncnc(N)c34)[nH]c12 [OSI-027] (partner 0.5 µM)
relative viability ([1]; first compound 0.01 µM): 0.436 | relative viability ([1]; first compound 0.03162 µM): 0.587 | relative viability ([1]; first compound 0.1 µM): 0.573 | relative viability ([1]; first compound 0.3162 µM): 0.519 | relative viability ([1]; first compound 1 µM): 0.479 | relative viability ([2]; first compound 0.01 µM): 0.978 | relative viability ([2]; first compound 0.03162 µM): 0.876 | relative viability ([2]; first compound 0.1 µM): 0.925 | relative viability ([2]; first compound 0.3162 µM): 0.874 | relative viability ([2]; first compound 1 µM): 0.857 | relative viability ([3]; first compound 0.01 µM): 1.02 | relative viability ([3]; first compound 0.03162 µM): 1.01 | relative viability ([3]; first compound 0.1 µM): 1.2 | relative viability ([3]; first compound 0.3162 µM): 1.06 | relative viability ([3]; first compound 1 µM): 1.24 | relative viability ([4]; first compound 0.01 µM): 1.06 | relative viability ([4]; first compound 0.03162 µM): 1.02 | relative viability ([4]; first compound 0.1 µM): 1.15 | relative viability ([4]; first compound 0.3162 µM): 1.3 | relative viability ([4]; first compound 1 µM): 0.922 | relative viability ([5]; first compound 0.01 µM): 0.71 | relative viability ([5]; first compound 0.03162 µM): 0.759 | relative viability ([5]; first compound 0.1 µM): 0.867 | relative viability ([5]; first compound 0.3162 µM): 0.803 | relative viability ([5]; first compound 1 µM): 0.725 | relative viability ([6]; first compound 0.01 µM): 0.311 | relative viability ([6]; first compound 0.03162 µM): 0.228 | relative viability ([6]; first compound 0.1 µM): 0.26 | relative viability ([6]; first compound 0.3162 µM): 0.24 | relative viability ([6]; first compound 1 µM): 0.243 | relative viability ([7]; first compound 0.01 µM): 0.419 | relative viability ([7]; first compound 0.03162 µM): 0.385 | relative viability ([7]; first compound 0.1 µM): 0.381 | relative viability ([7]; first compound 0.3162 µM): 0.469 | relative viability ([7]; first compound 1 µM): 0.383 | relative viability ([8]; first compound 0.01 µM): 0.672 | relative viability ([8]; first compound 0.03162 µM): 0.741 | relative viability ([8]; first compound 0.1 µM): 0.776 | relative viability ([8]; first compound 0.3162 µM): 0.776 | relative viability ([8]; first compound 1 µM): 0.696

O=c1cc(-c2cccc3c2Sc2ccccc2S3)oc(N2CCOCC2)c1 + COc1cccc2cc(-c3nc([C@H]4CC[C@H](C(=O)O)CC4)n4ncnc(N)c34)[nH]c12 [OSI-027] (partner 0.5 µM)
relative viability ([1]; first compound 0.08 µM): 0.419 | relative viability ([1]; first compound 0.253 µM): 0.561 | relative viability ([1]; first compound 2.53 µM): 0.343 | relative viability ([1]; first compound 8 µM): 0.499 | relative viability ([2]; first compound 0.08 µM): 0.885 | relative viability ([2]; first compound 0.253 µM): 1.17 | relative viability ([2]; first compound 0.8 µM): 1.01 | relative viability ([2]; first compound 2.53 µM): 0.891 | relative viability ([2]; first compound 8 µM): 1.02 | relative viability ([3]; first compound 0.08 µM): 0.89 | relative viability ([3]; first compound 0.253 µM): 1.2 | relative viability ([3]; first compound 0.8 µM): 0.692 | relative viability ([3]; first compound 2.53 µM): 0.723 | relative viability ([3]; first compound 8 µM): 0.775 | relative viability ([4]; first compound 0.08 µM): 1.25 | relative viability ([4]; first compound 0.253 µM): 1.08 | relative viability ([4]; first compound 0.8 µM): 0.957 | relative viability ([4]; first compound 2.53 µM): 1.03 | relative viability ([4]; first compound 8 µM): 1.08 | relative viability ([5]; first compound 0.08 µM): 0.635 | relative viability ([5]; first compound 0.253 µM): 0.88 | relative viability ([5]; first compound 0.8 µM): 0.695 | relative viability ([5]; first compound 2.53 µM): 0.512 | relative viability ([5]; first compound 8 µM): 0.525 | relative viability ([6]; first compound 0.08 µM): 0.264 | relative viability ([6]; first compound 0.253 µM): 0.257 | relative viability ([6]; first compound 0.8 µM): 0.277 | relative viability ([6]; first compound 2.53 µM): 0.22 | relative viability ([6]; first compound 8 µM): 0.252 | relative viability ([7]; first compound 0.08 µM): 0.593 | relative viability ([7]; first compound 0.253 µM): 0.447 | relative viability ([7]; first compound 0.8 µM): 0.346 | relative viability ([7]; first compound 2.53 µM): 0.431 | relative viability ([7]; first compound 8 µM): 0.374 | relative viability ([8]; first compound 0.08 µM): 0.687 | relative viability ([8]; first compound 0.253 µM): 0.736 | relative viability ([8]; first compound 0.8 µM): 0.594 | relative viability ([8]; first compound 2.53 µM): 0.628 | relative viability ([8]; first compound 8 µM): 0.758

O=c1cc(N2CCOCC2)oc2c(-c3cccc4c3sc3ccccc34)cccc12 + Cc1cc(Nc2cc(N3CCN(C)CC3)nc(Sc3ccc(NC(=O)C4CC4)cc3)n2)n[nH]1 [Tozasertib] (partner 0.1 µM)
relative viability ([1]; first compound 0.01 µM): 0.846 | relative viability ([1]; first compound 0.03162 µM): 1.05 | relative viability ([1]; first compound 0.1 µM): 1.12 | relative viability ([1]; first compound 0.3162 µM): 0.876 | relative viability ([1]; first compound 1 µM): 0.91 | relative viability ([2]; first compound 0.01 µM): 0.351 | relative viability ([2]; first compound 0.03162 µM): 0.406 | relative viability ([2]; first compound 0.1 µM): 0.428 | relative viability ([2]; first compound 0.3162 µM): 0.431 | relative viability ([2]; first compound 1 µM): 0.373 | relative viability ([3]; first compound 0.01 µM): 0.123 | relative viability ([3]; first compound 0.03162 µM): 0.125 | relative viability ([3]; first compound 0.1 µM): 0.102 | relative viability ([3]; first compound 0.3162 µM): 0.211 | relative viability ([3]; first compound 1 µM): 0.121 | relative viability ([4]; first compound 0.01 µM): 0.39 | relative viability ([4]; first compound 0.03162 µM): 0.418 | relative viability ([4]; first compound 0.1 µM): 0.417 | relative viability ([4]; first compound 0.3162 µM): 0.378 | relative viability ([4]; first compound 1 µM): 0.349 | relative viability ([5]; first compound 0.01 µM): 0.841 | relative viability ([5]; first compound 0.03162 µM): 0.813 | relative viability ([5]; first compound 0.1 µM): 0.741 | relative viability ([5]; first compound 0.3162 µM): 0.73 | relative viability ([5]; first compound 1 µM): 0.77 | relative viability ([6]; first compound 0.01 µM): 0.503 | relative viability ([6]; first compound 0.03162 µM): 0.501 | relative viability ([6]; first compound 0.1 µM): 0.547 | relative viability ([6]; first compound 0.3162 µM): 0.621 | relative viability ([6]; first compound 1 µM): 0.504 | relative viability ([7]; first compound 0.01 µM): 0.472 | relative viability ([7]; first compound 0.03162 µM): 0.4 | relative viability ([7]; first compound 0.1 µM): 0.394 | relative viability ([7]; first compound 0.3162 µM): 0.411 | relative viability ([7]; first compound 1 µM): 0.343 | relative viability ([8]; first compound 0.01 µM): 0.642 | relative viability ([8]; first compound 0.03162 µM): 0.65 | relative viability ([8]; first compound 0.1 µM): 0.655 | relative viability ([8]; first compound 0.3162 µM): 0.697 | relative viability ([8]; first compound 1 µM): 0.65

Reference: the supplement of paper PMC10307832
